From patent US20190225650A1, “PEPTIDOMIMETIC MACROCYCLES AND USE THEREOF IN REGULATING HIF1ALPHA” (AILERON THERAPEUTICS, INC., priority 2013, published 2019) come the findings set out here.

Bridge positions count the residues as written; N and C are the ends. Square brackets hold non-standard residues; d marks the D form. Peptide text beside a SMILES is read from it. S5 = C=CCCC[C@](C)(N)C(=O)O; Nle = CCCC[C@H](N)C(=O)O; Dap = NC[C@H](N)C(=O)O A value given as a limit tells only on which side of the number the result lay.

The experiment has as its system HRE-bla ME-180 cells. Nature of the experiment: Reporter gene assay (HRE-bla ME-180 HIF reporter, GeneBLAzer). The experiment is classed as cell-based, human. Particulars: for EC50: 24 hour normoxia. The method, then: The following reagents were used:
• DMEM+GutaMAX: (#10569044, Invitrogen) • Black clear bottom plates: (#3603, Costar) • HRE-bla-ME-180 cell line: (#K1644, Invitrogen) • Gene-Blazer reagent & protocol: (#K1096, Invitrogen) • Plate reader: Biotek Synergy 2 • Chetomin: (C9623, Sigma)
4 hours prior to experiment: HRE-bla ME-180 cells were seeded at a density of 20,000 cells/well in a volume of 180 μl in black clear bottom 96-well plates. 180 μl of assay medium was added to the cell-free control wells. Incubation was conducted at 37° C., 5% CO2 for 4 hours.
Diluted chetomin was used as a positive control. Chetomin was diluted in 100% DMSO to a 10 mM stock concentration. A 1 mM stock of chetomin was prepared in 100% DMSO. Then the 1 mM chetomin stock was serially diluted in 1:4 in 100% DMSO. Finally, 50, 12.5, 3.125, 0.78, 0.2, 0.05 μM stock of chetomin in 5% DMSO/water were prepared by adding 114 μL water+6 μL chetomin in DMSO.
Test peptides were diluted before use. The test peptides were diluted in 100% DMSO to a 10 mM stock concentration. Then each 10 mM peptide stock was diluted in 1:3 in 100% DMSO. Finally, 300, 100, 33.3, 11.1, 3.7, 1.2 μM stock of each peptide in 5% DMSO/water were prepared by adding 129.2 μL water+4 μL peptide in DMSO.
20 μl of peptide, chetomin dilution, or DMSO/water control were added to the appropriate wells of a plate to achieve 200 μL final volumes in 0.3% DMSO/media. The plate was first incubated for 18-20 hours in normoxia incubator (37° C. in humidified 5% CO2, 20% O2 atmosphere). Then the plate was transferred to hypoxia incubator for 24 hours (37° C. in humidified 5% CO2, 1% O2 atmosphere)
6× LiveBLAzer™-FRET B/G (CCF4-AM) Substrate Mixture was prepared according to CellSensor™ HRE-bla ME-180 Cell-based Assay Protocol (Invitrogen) and added into each well. Solution A (CCF4-AM) was reconstituted in DMSO to a working concentration of 1 mM, divided in aliquots, and stored at −20° C. The 6× LiveBLAzer-FRET B/G (CCF4-AM) Substrate mixture was prepared by mixing 6 μl of Solution A, 60 μl of Solution B, and 934 μl Solution C.
The plates were removed from incubator and equilibrated to RT for a few minutes. Then 20 μl of 6× Substrate mixture was added to each well. The plates were then incubated at room temperature for 3 hr in the dark and read at 409 Ex/460Em and 409Ex/530Em using the “GeneBlazer-Tungsten with export” program on the Synergy 2.
The average percentage of maximum inhibition was obtained by comparing the peptide treated cells (30 μM) to DMSO vehicle control treated cells. The results are shown in the columns “ME-180 HIF Reporter EC50 (μM) −24 hr normoxia” and “18 h Avg % max inhibition at top conc (HIF Rptr-24 hrsnormoxia) (μM)” of Table 6.
In general terms: A reporter such as luciferase makes a cellular process visible.

What is called EC50 is the midpoint of the concentration-response curve.

As for `CCCC[C@H](NC(=O)[C@H](CC(C)C)NC(=O)[C@@H](NC(=O)[C@H](CCC(=O)O)NC(=O)[C@H](CCC(=O)O)NC(=O)[C@H](CC(=O)O)NC(=O)[C@@H](NC(=O)[C@H](Cc1ccccc1)NC(C)=O)[C@@H](C)CC)C(C)C)C(=O)N[C@@]1(C)CCCC=CCCC[C@@](C)(C(=O)N[C@@H](CCCC)C(=O)N[C@@H](C)C(=O)N[C@@H](CC(C)C)C(=O)N[C@@H](CC(=O)O)C(=O)N[C@@H](CCCNC(=N)N)C(=O)N[C@@H](CO)C(N)=O)NC(=O)[C@H]([C@@H](C)CC)NC(=O)[C@H](C(C)C)NC(=O)[C@H](CC(C)C)NC1=O` [SP-59] (Ac-FIDEEVL[Nle][S5]LVI[S5][Nle]ALDRS-NH2; staple 9-13), the “18 h Avg % max inhibition at top conc (HIF Rptr-24 hrs normoxia) (μM)” value (“18 h Avg % max inhibition at top conc” below) is listed as “+++ (≤25 but <50: +++)” and the half-maximal effective concentration (EC50) lay within 15 to 30 µM.

Consider `CC[C@H](C)[C@H](NC(=O)[C@H](CCCNC(=N)N)NC(=O)[C@H](CC(=O)O)NC(=O)[C@H](CC(C)C)NC(=O)CNC(=O)[C@H](CCSC)NC(=O)[C@]1(C)CCCC=CCCC[C@](C)(NC(=O)[C@H](CCSC)NC(=O)[C@H](CC(C)C)NC(=O)[C@@H](NC(=O)[C@H](CCC(=O)O)NC(=O)[C@H](CCC(=O)O)NC(=O)[C@H](CC(=O)O)NC(C)=O)C(C)C)C(=O)N[C@@H](CC(C)C)C(=O)N[C@@H](C(C)C)C(=O)N[C@@H]([C@@H](C)CC)C(=O)N1)C(=O)N[C@@H](CCCCN)C(=O)N[C@@H](CCC(=O)O)C(=O)N[C@@H](CC(C)C)C(=O)N1CCC[C@H]1C(=O)N[C@@H](CCC(=O)O)C(=O)N[C@@H](CC(C)C)C(=O)N[C@@H](Cc1c[nH]c2ccccc12)C(=O)N[C@@H](CC(C)C)C(N)=O` [SP-87] (Ac-DEEVLM[S5]LVI[S5]MGLDRIKELPELWL-NH2; staple 7-11), for which the “18 h Avg % max inhibition at top conc” value is given as “++++ (≥50: ++++)” and the EC50 is 15 to 30 µM. For `CCCC[C@H](NC(=O)[C@H](CC(C)C)NC(=O)[C@H](CN)NC(=O)[C@H](CCC(=O)O)NC(=O)[C@H](CCC(=O)O)NC(=O)[C@H](CC(=O)O)NC(=O)[C@@H](NC(=O)[C@H](Cc1ccccc1)NC(C)=O)[C@@H](C)CC)C(=O)N[C@@]1(C)CCCC=CCCC[C@@](C)(C(=O)N[C@@H](CCCC)C(=O)N[C@@H](C)C(=O)N[C@@H](CC(C)C)C(=O)N[C@@H](CC(=O)O)C(=O)N[C@@H](CCCNC(=N)N)C(=O)N[C@H](C(N)=O)[C@@H](C)CC)NC(=O)[C@H]([C@@H](C)CC)NC(=O)[C@H](C(C)C)NC(=O)[C@H](CC(C)C)NC1=O` [SP-64] (Ac-FIDEE[Dap]L[Nle][S5]LVI[S5][Nle]ALDRI-NH2; staple 9-13), the “18 h Avg % max inhibition at top conc” value is “+ (<10: +)” and the EC50 was > 30 µM. For the compound `CCCC[C@H](NC(=O)[C@H](CCC(=O)O)NC(=O)[C@@H](NC(=O)[C@@H](NC(=O)[C@H](CC(C)C)NC(=O)[C@]1(C)CCCC=CCCC[C@](C)(NC(=O)[C@H](CCC(=O)O)NC(=O)[C@H](CC(=O)O)NC(=O)[C@@H](NC(=O)[C@H](Cc2ccccc2)NC(C)=O)[C@@H](C)CC)C(=O)N[C@@H](C(C)C)C(=O)N[C@@H](CC(C)C)C(=O)N[C@@H](CCCC)C(=O)N1)C(C)C)[C@@H](C)CC)C(=O)N[C@@H](C)C(=O)N[C@@H](CC(C)C)C(=O)N[C@@H](CC(=O)O)C(=O)N[C@@H](CCCNC(=N)N)C(=O)N[C@H](C(=O)N[C@@H](CCCCN)C(=O)N[C@@H](CCC(=O)O)C(=O)N[C@@H](CC(C)C)C(=O)N1CCC[C@H]1C(=O)N[C@@H](CCC(=O)O)C(=O)N[C@@H](CC(C)C)C(=O)N[C@@H](Cc1c[nH]c2ccccc12)C(=O)N[C@@H](CC(C)C)C(N)=O)[C@@H](C)CC` [SP-106] (Ac-FIDE[S5]VL[Nle][S5]LVIE[Nle]ALDRIKELPELWL-NH2; staple 5-9), the EC50 was > 30 µM. As to `CCCC[C@H](NC(=O)[C@]1(C)CCCC=CCCC[C@](C)(NC(=O)[C@H](C)NC(=O)[C@H](CC(C)C)NC(=O)[C@@H](NC(=O)[C@H](CCC(=O)O)NC(=O)[C@H](CCC(=O)O)NC(=O)[C@H](CC(=O)O)NC(=O)[C@@H](NC(=O)[C@H](Cc2ccccc2)NC(C)=O)[C@@H](C)CC)C(C)C)C(=O)N[C@@H](CC(C)C)C(=O)N[C@@H](C(C)C)C(=O)N[C@@H]([C@@H](C)CC)C(=O)N1)C(=O)N[C@@H](C)C(=O)N[C@@H](CC(C)C)C(=O)N[C@@H](CC(=O)O)C(=O)N[C@@H](CCCNC(=N)N)C(=O)N[C@H](C(N)=O)[C@@H](C)CC` [SP-16] (Ac-FIDEEVLA[S5]LVI[S5][Nle]ALDRI-NH2; staple 9-13), the “18 h Avg % max inhibition at top conc” value is given as “++++ (≥50: ++++)” and the EC50 is ≤ 5 µM.

With `CCCC[C@H](NC(=O)[C@H](CO)NC(=O)[C@@H](NC(=O)[C@H](CCC(=O)O)NC(=O)[C@H](CCC(=O)O)NC(=O)[C@H](CC(=O)O)NC(=O)[C@@H](NC(=O)[C@H](Cc1ccccc1)NC(C)=O)[C@@H](C)CC)C(C)C)C(=O)N[C@@]1(C)CCCC=CCCC[C@@](C)(C(=O)N[C@@H](CCCC)C(=O)N[C@@H](C)C(=O)N[C@@H](CC(C)C)C(=O)N[C@@H](CC(=O)O)C(=O)N[C@@H](CCCNC(=N)N)C(=O)N[C@H](C(N)=O)[C@@H](C)CC)NC(=O)[C@H]([C@@H](C)CC)NC(=O)[C@H](C(C)C)NC(=O)[C@H](CC(C)C)NC1=O` [SP-49] (Ac-FIDEEVS[Nle][S5]LVI[S5][Nle]ALDRI-NH2; staple 9-13), the “18 h Avg % max inhibition at top conc” value is recorded as “++++ (≥50: ++++)” and the EC50 was in the range of 5 to 15 µM. In the same order, the values of `CCCC[C@H](NC(=O)[C@H](CC(C)C)NC(=O)[C@@H](NC(=O)[C@H](CCC(=O)O)NC(=O)[C@H](CCC(=O)O)NC(=O)[C@H](CC(=O)O)NC(=O)[C@@H](NC(=O)[C@H](Cc1ccccc1)NC(C)=O)[C@@H](C)CC)C(C)C)C(=O)N[C@@]1(C)CCCC=CCCC[C@@](C)(C(=O)N[C@@H](CCCC)C(=O)N[C@@H](C)C(=O)N[C@@H](CC(C)C)C(=O)N[C@@H](C)C(=O)N[C@@H](CCCNC(=N)N)C(=O)N[C@H](C(N)=O)[C@@H](C)CC)NC(=O)[C@H]([C@@H](C)CC)NC(=O)[C@H](C(C)C)NC(=O)[C@H](CC(C)C)NC1=O` [SP-23] (Ac-FIDEEVL[Nle][S5]LVI[S5][Nle]ALARI-NH2; staple 9-13) are “++++ (≥50: ++++)” and 5 to 15 µM. `CCCC[C@H](NC(=O)[C@H](C)NC(=O)[C@@H](NC(=O)[C@H](CCC(=O)O)NC(=O)[C@H](CCC(=O)O)NC(=O)[C@H](CC(=O)O)NC(=O)[C@@H](NC(=O)[C@H](Cc1ccccc1)NC(C)=O)[C@@H](C)CC)C(C)C)C(=O)N[C@@]1(C)CCCC=CCCC[C@@](C)(C(=O)N[C@@H](CCCC)C(=O)N[C@@H](C)C(=O)N[C@@H](CC(C)C)C(=O)N[C@@H](CC(=O)O)C(=O)N[C@@H](CCCNC(=N)N)C(=O)N[C@H](C(N)=O)[C@@H](C)CC)NC(=O)[C@H]([C@@H](C)CC)NC(=O)[C@H](C(C)C)NC(=O)[C@H](CC(C)C)NC1=O` [SP-15] (Ac-FIDEEVA[Nle][S5]LVI[S5][Nle]ALDRI-NH2; staple 9-13): the “18 h Avg % max inhibition at top conc” value is “++++ (≥50: ++++)” and the EC50 was ≤ 5 µM. On to `CCCC[C@H](NC(=O)[C@H](CC(C)C)NC(=O)[C@@H](NC(=O)[C@H](CCC(N)=O)NC(=O)[C@H](CCC(=O)O)NC(=O)[C@H](CC(=O)O)NC(=O)[C@@H](NC(=O)[C@H](Cc1ccccc1)NC(C)=O)[C@@H](C)CC)C(C)C)C(=O)N[C@@]1(C)CCCC=CCCC[C@@](C)(C(=O)N[C@@H](CCCC)C(=O)N[C@@H](C)C(=O)N[C@@H](CC(C)C)C(=O)N[C@@H](CC(=O)O)C(=O)N[C@@H](CCCNC(=N)N)C(=O)N[C@H](C(N)=O)[C@@H](C)CC)NC(=O)[C@H]([C@@H](C)CC)NC(=O)[C@H](C(C)C)NC(=O)[C@H](CC(C)C)NC1=O` [SP-69] (Ac-FIDEQVL[Nle][S5]LVI[S5][Nle]ALDRI-NH2; staple 9-13), for which the “18 h Avg % max inhibition at top conc” value was “++++ (≥50: ++++)” and the 50% effective concentration (EC50) lay in the range of 5 to 15 µM.
